Assays:
hTERT-RPE1 cells [1] = assay: serum-induced ciliary disassembly in ciliated hTERT-RPE1 cells; format: cell-based; details: compounds added 2 hours prior to induction; tubacin and niltubacin 2 μM, GSK3 inhibitor 2 μM, FTI-277 50 nM
Method: hTERT-RPE1 cells were grown in DMEM with 10% fetal bovine serum (FBS). For analysis of ciliary disassembly, cells were plated at 30% confluence in plates containing glass cover slips, and starved for 48 hours (in Opti-MEM or regular DMEM, without added serum) to induce cilia formation, followed by treatments described hereinbelow. For siRNA treatment, cells were initially plated in DMEM/10% FBS in plates containing cover slips, and 12 hours later siRNA transfection was performed in Opti-MEM with Oligofectamine (Invitrogen) according to manufacturer recommendations, and fixed 48 hours after transfection, following treatments indicated in Results. The remaining cells on plate were lysed, then either directly analyzed by Western blot analysis, or used for immunoprecipitation (IP)-kinase reaction to measure AurA activity.
Cells were fixed with 4% paraformaldehyde (10 min) then methanol (5 min), permeabilized with 1% Triton-X100 in PBS, blocked in 1×PBS, 3% BSA, and incubated with antibodies using standard protocols. Primary antibodies included rabbit polyclonal anti-Aurora A and anti-phospho-AuroraA/T288, (Cell Signaling), mouse mAb anti-HEF1 (14A11), polyclonal anti-γ-tubulin (Sigma), anti-α-tubulin mAb (Sigma), anti-acetylated α-tubulin mAb (clone 6-11B-1, Sigma, and clone K(Ac)40 Biomol), anti-IFT88 and anti-IFT20 (gifts of G. Pazour), mouse anti-glutamylated tubulin (Sigma), and anti-HDAC6 (Upstate). Secondary antibodies labeled with Alexa-488, Alexa-568, and Alexa-633, and TOTO-3 dye to stain DNA, were from Molecular Probes/Invitrogen. DNA was co-stained in some experiments by propidium iodine (Sigma) or Draq5 (Alexis), Confocal microscopy was performed using a Radiance 2000 laser scanning confocal microscope ((Carl Zeiss, Thornwood, N.Y.) coupled to a Nikon Eclipse E800 upright microscope (Nikon). Statistical analysis of data by one-way ANOVA was performed using GraphPad Instat 3.0 (San Diego, Calif.).

acetylated tubulin = assay: intracellular levels of acetylated tubulin (Western blot); format: cell-based; details: vs DMSO vehicle
Method: (§1) For microinjection, recombinant glutathione-S-transferase (GST), GST fused AurA mutants T288A and D274N) produced from BL21 (DE3) bacteria were purified using the MicroSpin GST Purification Module (Amersham Biotech.). Purified recombinant AurA was purchased from Upstate; this AurA was pre-activated based on incubation with ATP. […] To prepare lysates for Western blotting and IP, mammalian cells were disrupted by M-PER lysis buffer (Pierce) supplemented with EDTA-free protease inhibitor cocktail (Roche). Lysates used for IP were incubated overnight with antibody at 4° C., subsequently incubated for 2 hours with protein A/G-sepharose (Pierce), washed, and resolved by SDS-PAGE. Western blotting was performed using standard procedures and proteins visualized using the West-Pico system (Pierce). Antibodies used included mouse monoclonal antibody (mAb) anti-HEF1 2G9 (Pugacheva and Golemis, 2005), anti-α-tubulin mAb (Sigma), anti-AurA (BD Bioscience) for Western blotting, anti-AurA rabbit polyclonal (Cell Signaling) for IP, anti-Phospho-AurA/T288 (BioLegend), anti-Phospho-AurA/T288 (Cell Signaling), anti-HDAC6 rabbit polyclonal (Upstate; 1:5000), anti-HDAC2 rabbit polyclonal (Invitrogen) and mAb anti-β-actin (AC15, Sigma), anti-IFT88 and anti-IFT20. Secondary horseradish peroxidase (HRP)-conjugated antibodies were from Amersham Biotech.

hTERT-RPE1 cells [2] = assay: FACS cell cycle profile after serum stimulation; format: cell-based
hTERT-RPE1 cells [3] = assay: loss of cilia after microinjection of AurA proteins into ciliated hTERT-RPE1 cells; format: cell-based
Method: as §1
Microinjections were performed on a Nikon TE300 Microscope (Nikon, Melville, N.Y.) that was equipped with an Eppendorf Transjector 5246 semi-automatic microinjector and micromanipulator (Eppendorf, Westbury, N.Y.). […] Proteins were pre-filtered through a 0.2-μm Milliopore membrane and mixed with Dextran Green488 (Molecular Probes) to mark injected cells. Injected cells were incubated at 37° C. before fixation. Typically, 150 cells were microinjected in each of 3 experiments.

hTERT-RPE1 cells [4] = assay: growth factor-induced disassembly of cilia in hTERT-RPE1 cells; format: cell-based; details: 10 ng/ml
Method: FIG. 4. Growth factor-induced disassembly of cilia in hTERT-RPE1 cells. A. Time course of disassembly of cilia in cells treated with EGF, PDGF, and TGF-β. […] B. Western blot indicating T288-phosphorylated and total AurA in cells treated with PDGF or EGF, at times indicated after treatment. C. Immunofluorescence depicting cilia (red, acetylated a α-tubulin) and phospho-AurA (green) staining at the basal body at 2 hours after stimulation with PDGF, EGF, or serum. Phosphorylated AurA is apparent in PDGF- and serum-treated cells, but not EGF-treated cells: further, many well-formed cilia are apparent in EGF-treated cells (marked with asterisks) in contrast to other conditions. Scale bar represents […].
hTERT-RPE1 cells were grown in DMEM with 10% fetal bovine serum (FBS). For analysis of ciliary disassembly, cells were plated at 30% confluence in plates containing glass cover slips, and starved for 48 hours (in Opti-MEM or regular DMEM, without added serum) to induce cilia formation, followed by treatments described hereinbelow. […] The remaining cells on plate were lysed, then either directly analyzed by Western blot analysis, or used for immunoprecipitation (IP)-kinase reaction to measure AurA activity.

[5] = target: recombinant glutathione-S-transferase (GST)
[6] = target: T1, in vitro translated and immunoprecipitated HDAC6, Q9UBN7
T1 chain: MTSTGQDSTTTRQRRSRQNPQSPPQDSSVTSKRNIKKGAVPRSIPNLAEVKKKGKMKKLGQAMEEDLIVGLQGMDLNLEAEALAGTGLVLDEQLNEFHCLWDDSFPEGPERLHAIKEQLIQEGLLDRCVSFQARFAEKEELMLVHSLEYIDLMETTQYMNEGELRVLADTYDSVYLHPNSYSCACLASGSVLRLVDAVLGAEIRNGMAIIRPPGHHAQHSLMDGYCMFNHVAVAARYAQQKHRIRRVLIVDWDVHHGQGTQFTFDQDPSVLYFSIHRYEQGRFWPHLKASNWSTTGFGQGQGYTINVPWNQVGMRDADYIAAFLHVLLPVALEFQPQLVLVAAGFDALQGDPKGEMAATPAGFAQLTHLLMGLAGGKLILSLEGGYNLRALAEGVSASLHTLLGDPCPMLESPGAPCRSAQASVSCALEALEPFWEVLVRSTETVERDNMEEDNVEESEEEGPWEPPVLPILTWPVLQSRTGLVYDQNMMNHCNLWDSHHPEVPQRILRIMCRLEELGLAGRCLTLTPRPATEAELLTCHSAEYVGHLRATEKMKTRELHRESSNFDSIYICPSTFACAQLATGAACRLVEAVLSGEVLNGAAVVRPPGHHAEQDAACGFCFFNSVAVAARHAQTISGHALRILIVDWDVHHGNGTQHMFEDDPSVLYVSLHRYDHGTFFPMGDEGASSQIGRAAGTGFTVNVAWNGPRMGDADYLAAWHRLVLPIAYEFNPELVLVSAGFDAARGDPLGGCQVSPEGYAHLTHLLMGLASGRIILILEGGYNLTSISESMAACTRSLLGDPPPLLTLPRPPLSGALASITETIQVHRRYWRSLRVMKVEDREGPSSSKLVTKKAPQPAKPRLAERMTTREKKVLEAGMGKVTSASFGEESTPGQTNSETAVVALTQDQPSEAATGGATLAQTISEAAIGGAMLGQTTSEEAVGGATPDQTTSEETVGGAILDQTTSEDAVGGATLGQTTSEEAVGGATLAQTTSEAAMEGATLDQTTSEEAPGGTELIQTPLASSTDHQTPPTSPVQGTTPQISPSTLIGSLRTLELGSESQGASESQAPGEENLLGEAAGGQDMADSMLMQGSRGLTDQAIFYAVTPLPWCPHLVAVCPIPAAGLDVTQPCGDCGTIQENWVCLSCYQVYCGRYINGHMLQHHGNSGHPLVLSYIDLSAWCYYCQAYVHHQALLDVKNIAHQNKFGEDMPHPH

[7] = 0.05 μM protein microinjected, low serum medium

COC(=O)[C@H](CCSC)NC(=O)c1ccc(NC[C@@H](N)CS)cc1-c1ccccc1 [FTI]
serum-induced ciliary disassembly (hTERT-RPE1 cells [1]): do not inhibit

O=C(O)CCCCCCC(=O)Nc1ccc([C@H]2O[C@@H](CSc3nc(-c4ccccc4)c(-c4ccccc4)o3)C[C@@H](c3ccc(CO)cc3)O2)cc1 [niltubacin]
levels of acetylated tubulin in treated cells (acetylated tubulin): not | serum-induced ciliary disassembly (hTERT-RPE1 cells [1]): no effect

CC(/C=C/C(=O)NO)=C\[C@@H](C)C(=O)c1ccc(N(C)C)cc1 [trichostatin A (TSA), trichostatin A]
levels of acetylated tubulin in treated cells (acetylated tubulin): increased | serum-induced ciliary disassembly (hTERT-RPE1 cells [1]): completely blocked

O=C(CCCCCCC(=O)Nc1ccc([C@H]2O[C@@H](CSc3nc(-c4ccccc4)c(-c4ccccc4)o3)C[C@@H](c3ccc(CO)cc3)O2)cc1)NO [tubacin]
cell cycle profile at 2 h after serum stimulation (hTERT-RPE1 cells [2]; 2 h): neither tubacin treatment nor siRNA to HDAC6 influenced cell cycle profile | cell cycle profile at the later time point after serum stimulation (hTERT-RPE1 cells [2]; later time point (18-24 h)): accumulation in G2 | ability of microinjected AurA to disassemble cilia (hTERT-RPE1 cells [3]; cells pre-treated for 3 hours with tubacin before aAurA microinjection): substantially limited | levels of acetylated tubulin in treated cells (acetylated tubulin): increased | serum-induced ciliary disassembly (hTERT-RPE1 cells [1]): completely blocked

PDGF
ciliary disassembly response to growth factor (hTERT-RPE1 cells [4]): partial response

B1: recombinant activated AurA (Upstate) (protein)
chain: MDRSKENCISGPVKATAPVGGPKRVLVTQQFPCQNPLPVNSGQAQRVLCPSNSSQRIPLQAQKLVSSHKPVQNQKQKQLQATSVPHPVSRPLNNTQKSKQPLPSAPENNPEEELASKQKNEESKKRQWALEDFEIGRPLGKGKFGNVYLAREKQSKFILALKVLFKAQLEKAGVEHQLRREVEIQSHLRHPNILRLYGYFHDATRVYLILEYAPLGTVYRELQKLSKFDEQRTATYITELANALSYCHSKRVIHRDIKPENLLLGSAGELKIADFGWSVHAPSSRRTTLCGTLDYLPPEMIEGRMHDEKVDLWSLGVLCYEFLVGKPPFEANTYQETYKRISRVEFTFPDFVTEGARDLISRLLKHNPSQRPMLREVLEHPWITANSSKPSNCQNKESASKQS
in vitro kinase assay (32P autoradiography) [5]: AurA phosphorylated HDAC6, but not HDAC2 or the GST negative control | in vitro tubulin deacetylation assay [6]: AurA-phosphorylated HDAC6 was much more potent than unphosphorylated HDAC6 in deacetylating α-tubulin | injected cells lacking cilia (hTERT-RPE1 cells [3]; 0.05 μM protein microinjected, low serum medium, as soon as cells could be fixed): more than 80%

B2: T288A: T288A AurA, a hypomorphic mutant (protein, UniProt O14965 1-403, looked up, variant T288A)
Aurora kinase A: MDRSKENCISGPVKATAPVGGPKRVLVTQQFPCQNPLPVNSGQAQRVLCPSNSSQRIPLQAQKLVSSHKPVQNQKQKQLQATSVPHPVSRPLNNTQKSKQPLPSAPENNPEEELASKQKNEESKKRQWALEDFEIGRPLGKGKFGNVYLAREKQSKFILALKVLFKAQLEKAGVEHQLRREVEIQSHLRHPNILRLYGYFHDATRVYLILEYAPLGTVYRELQKLSKFDEQRTATYITELANALSYCHSKRVIHRDIKPENLLLGSAGELKIADFGWSVHAPSSRRTALCGTLDYLPPEMIEGRMHDEKVDLWSLGVLCYEFLVGKPPFEANTYQETYKRISRVEFTFPDFVTEGARDLISRLLKHNPSQRPMLREVLEHPWITANSSKPSNCQNKESASKQS
loss of cilia after microinjection (hTERT-RPE1 cells [3]; [7]): eventual partial loss of cilia

B3: D274N: D274N AurA, an inactive mutant (protein, UniProt O14965 1-403, looked up, variant D274N)
Aurora kinase A: MDRSKENCISGPVKATAPVGGPKRVLVTQQFPCQNPLPVNSGQAQRVLCPSNSSQRIPLQAQKLVSSHKPVQNQKQKQLQATSVPHPVSRPLNNTQKSKQPLPSAPENNPEEELASKQKNEESKKRQWALEDFEIGRPLGKGKFGNVYLAREKQSKFILALKVLFKAQLEKAGVEHQLRREVEIQSHLRHPNILRLYGYFHDATRVYLILEYAPLGTVYRELQKLSKFDEQRTATYITELANALSYCHSKRVIHRDIKPENLLLGSAGELKIANFGWSVHAPSSRRTTLCGTLDYLPPEMIEGRMHDEKVDLWSLGVLCYEFLVGKPPFEANTYQETYKRISRVEFTFPDFVTEGARDLISRLLKHNPSQRPMLREVLEHPWITANSSKPSNCQNKESASKQS
loss of cilia after microinjection (hTERT-RPE1 cells [3]; [7]): did not induce loss of cilia

— patent US8685658B2, “Compositions and methods for the treatment of diseases associated with aberrant cilia assembly and regulation” (Fox Chase Cancer Center, priority 2006, dated 2014)
